Here are results for 16 compounds from ChEMBL document CHEMBL1201862, “PubChem BioAssay data set” (2004).

Assay [1] has as its target T1, Short transient receptor potential channel 4 (Mus musculus, UniProt Q9QUQ5).
T1 sequence (Q9QUQ5 whole entry): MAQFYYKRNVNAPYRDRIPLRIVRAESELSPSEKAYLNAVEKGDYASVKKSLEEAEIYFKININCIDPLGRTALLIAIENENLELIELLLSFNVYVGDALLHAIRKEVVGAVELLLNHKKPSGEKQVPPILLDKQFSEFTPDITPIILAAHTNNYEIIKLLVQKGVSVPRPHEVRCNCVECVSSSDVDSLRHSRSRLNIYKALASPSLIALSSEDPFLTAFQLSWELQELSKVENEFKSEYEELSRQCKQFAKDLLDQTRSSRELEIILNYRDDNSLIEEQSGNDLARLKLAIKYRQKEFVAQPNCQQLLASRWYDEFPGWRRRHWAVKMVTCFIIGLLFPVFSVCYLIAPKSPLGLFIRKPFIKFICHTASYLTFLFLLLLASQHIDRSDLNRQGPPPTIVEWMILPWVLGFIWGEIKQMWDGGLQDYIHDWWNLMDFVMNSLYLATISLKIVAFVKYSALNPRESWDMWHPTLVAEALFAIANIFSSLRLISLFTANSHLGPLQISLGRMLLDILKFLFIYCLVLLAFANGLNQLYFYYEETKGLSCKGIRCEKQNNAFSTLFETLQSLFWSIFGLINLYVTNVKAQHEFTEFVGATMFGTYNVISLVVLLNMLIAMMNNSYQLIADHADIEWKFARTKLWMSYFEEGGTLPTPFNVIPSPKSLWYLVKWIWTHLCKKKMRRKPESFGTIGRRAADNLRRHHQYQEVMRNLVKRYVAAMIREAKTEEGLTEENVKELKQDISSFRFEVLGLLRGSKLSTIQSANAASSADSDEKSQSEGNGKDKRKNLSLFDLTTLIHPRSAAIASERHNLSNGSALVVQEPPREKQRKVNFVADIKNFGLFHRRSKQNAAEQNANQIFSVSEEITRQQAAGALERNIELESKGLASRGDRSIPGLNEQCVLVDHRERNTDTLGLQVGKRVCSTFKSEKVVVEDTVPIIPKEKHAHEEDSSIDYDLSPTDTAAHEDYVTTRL
Briefly: mouse TRPC4 channel activators, dose response, cell-based, HEK293 TRPC4/mu-opioid, Fluo-4 calcium (AID 434937). Format: functional.

A short description of assay [2]: inhibitors of intracellular T. cruzi replication, confirmation, NIH3T3 host cells, beta-gal luminescence (AID 2044).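 Further: intracellular parasites grown in NIH/3T3 mouse fibroblasts as host cells; luminescent beta-galactosidase reporter signal from transgenic T. cruzi replicating inside host cells; inhibitors lower the luminescence signal.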 The class given is functional, cell-based.
A short description of assay [3]: cytotoxicity toward NIH3T3 fibroblasts, dose response, counter-screen, cell-based, ATP luminescence, mouse fibroblasts (AID 2010).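 Further: cells exposed to compound for about 90 hours before reading.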 The class given is functional. On the technique in general: The purpose of a counterscreen is to sort out artefacts and off-target activity.
Assay [4] concerns the target Ras and Rab interactor 1/Tyrosine-protein kinase ABL1 (Homo sapiens, UniProt P00519+Q13671). Format: functional.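 Further: biochemical TR-FRET dose-response test measuring inhibition of binding between Rin1 and Abl proteins.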
Assay [5] addresses DNA dC->dU-editing enzyme APOBEC-3A (Homo sapiens, UniProt P31941). Briefly: Dose Response confirmation of small molecule APOBEC3A DNA Deaminase Inhibitors via a fluorescence-based single-stranded DNA deaminase assay. [Related pubchem assays (depositor defined):AID493011, AID493024]. Format: functional.
Assay [6] concerns the target DNA dC->dU-editing enzyme APOBEC-3G (Homo sapiens, UniProt Q9HC16). The class given is functional.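 Further: Dose-response counterscreen measuring inhibition of APOBEC3G DNA deaminase activity, run while confirming APOBEC3A inhibitors.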
Assay [7] in a line: cytotoxicity in HEK-293T cells, dose response, cytotoxicity control for TCR NF-kB inhibitor project, luminescence, T-cell screen hits (AID 489026).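 Further: cells exposed to compound about 14 hours before the viability readout.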 Format: functional, cell-based.
A short description of assay [8]: HEp-2 cell cytotoxicity, dose response, cytotoxicity control for RSV inhibitor project, HTS (AID 2410). The class given is functional. The conditions noted are these: human respiratory syncytial virus.
For assay [9], the target named is T2, Low molecular weight phosphotyrosine protein phosphatase (Homo sapiens, UniProt P24666).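 Further: Dose-response confirmation assay measuring inhibition of LMPTP enzyme activity by fluorescence intensity read-out.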
T2 sequence (P24666 whole entry): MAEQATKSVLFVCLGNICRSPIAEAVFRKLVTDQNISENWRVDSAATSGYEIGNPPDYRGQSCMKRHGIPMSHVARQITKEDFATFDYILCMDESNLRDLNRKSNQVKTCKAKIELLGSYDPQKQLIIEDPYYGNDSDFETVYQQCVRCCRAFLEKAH
The class given is functional. The conditions noted are these: read-out: IC50_Mean.

For assay [10], the target named is T3, Coagulation factor XII (Homo sapiens, UniProt P00748).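 Further: activated factor XIIa alpha cleaving a fluorogenic AMC peptide substrate; inhibitor potency from loss of enzyme activity.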
T3 sequence (P00748 whole entry): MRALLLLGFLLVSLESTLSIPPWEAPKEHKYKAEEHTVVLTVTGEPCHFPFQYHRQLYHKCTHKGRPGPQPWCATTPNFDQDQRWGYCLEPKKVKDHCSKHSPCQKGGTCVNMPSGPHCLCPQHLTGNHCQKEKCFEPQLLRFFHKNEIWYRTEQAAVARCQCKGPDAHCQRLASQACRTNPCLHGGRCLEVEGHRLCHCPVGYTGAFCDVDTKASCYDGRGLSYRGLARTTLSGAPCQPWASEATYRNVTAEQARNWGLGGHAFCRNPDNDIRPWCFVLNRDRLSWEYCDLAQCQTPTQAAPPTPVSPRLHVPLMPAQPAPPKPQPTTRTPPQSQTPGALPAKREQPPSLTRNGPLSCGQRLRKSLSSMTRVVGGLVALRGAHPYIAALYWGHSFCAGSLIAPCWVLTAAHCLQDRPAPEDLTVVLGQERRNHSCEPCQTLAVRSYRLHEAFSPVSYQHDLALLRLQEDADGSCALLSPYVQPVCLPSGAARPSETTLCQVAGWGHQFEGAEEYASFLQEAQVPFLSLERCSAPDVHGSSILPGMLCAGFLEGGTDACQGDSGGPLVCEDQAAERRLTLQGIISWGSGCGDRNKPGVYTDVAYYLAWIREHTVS
Format: functional.

For assay [11], the system named is H9c2. Briefly: cells. The class given is functional, cell-based. The settings on record: Rattus norvegicus, H9c2, Myocardium.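 Further: confirmatory concentration-response retest of ultra-high-throughput screening hits for modulation of myocardial damage; cell death induced by hydrogen peroxide oxidative stress; compound pretreatment for 60 min then peroxide exposure for 2 h; potency is for protecting the cells against peroxide damage rather than for killing them.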
Assay [12] addresses Melanocortin receptor 4 (Homo sapiens, UniProt P32245). Format: functional, cell-based.
Assay [13] is described as follows: control 3'UTR Renilla luciferase suppression, dose response, counter-screen for Shn3 inhibitor project, cell-based, Clone20-Shn3RL, cherry-picked (AID 624133). Format: functional.
Assay [14] can be described thus: HepG2 cell cytotoxicity, dose response, cytotoxicity control for Shn3 inhibitor project, CellTiter-Glo, cherry-picked (AID 624134). Format: functional, cell-based. Background: ATP-based viability assays read luminescence as a measure of living cells.
Assay [15] can be described thus: Shn3 3'UTR reporter inhibitors, dose response, cell-based, Clone20 osteoblasts, firefly luciferase, cherry-picked (AID 624132).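 Further: firefly luciferase luminescence from reporter carrying the Shn3 3'UTR in osteoblasts.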 Format: functional.
Assay [16] addresses T4, Hepatocyte nuclear factor 4-alpha (Homo sapiens, UniProt P41235).
T4 sequence (P41235 whole entry): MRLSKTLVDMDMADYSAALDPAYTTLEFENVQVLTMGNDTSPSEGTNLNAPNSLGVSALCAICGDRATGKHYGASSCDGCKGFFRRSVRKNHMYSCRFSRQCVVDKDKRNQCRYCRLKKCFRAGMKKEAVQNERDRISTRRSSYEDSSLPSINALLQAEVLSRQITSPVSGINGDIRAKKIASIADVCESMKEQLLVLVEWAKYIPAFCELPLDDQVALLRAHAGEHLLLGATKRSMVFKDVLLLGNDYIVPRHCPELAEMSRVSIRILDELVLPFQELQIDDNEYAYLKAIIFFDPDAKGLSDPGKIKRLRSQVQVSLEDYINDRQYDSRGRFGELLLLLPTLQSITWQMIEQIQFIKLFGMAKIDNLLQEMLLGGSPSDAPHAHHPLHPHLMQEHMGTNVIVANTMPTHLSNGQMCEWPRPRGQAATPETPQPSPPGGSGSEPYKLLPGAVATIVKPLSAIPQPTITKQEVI
The class given is functional, cell-based.

Assay [17] can be described thus: Vero E6 cell cytotoxicity, dose response, cytotoxicity control for non-replicating M. tuberculosis project, secondary assay (AID 492998). The conditions noted are these: Vero C1008. The class given is functional, VeroE6.
The nature of assay [18]: cells. The class given is functional.

The source made the active and inactive calls.

Sequence of DNA dC->dU-editing enzyme APOBEC-3G (Q9HC16 whole entry): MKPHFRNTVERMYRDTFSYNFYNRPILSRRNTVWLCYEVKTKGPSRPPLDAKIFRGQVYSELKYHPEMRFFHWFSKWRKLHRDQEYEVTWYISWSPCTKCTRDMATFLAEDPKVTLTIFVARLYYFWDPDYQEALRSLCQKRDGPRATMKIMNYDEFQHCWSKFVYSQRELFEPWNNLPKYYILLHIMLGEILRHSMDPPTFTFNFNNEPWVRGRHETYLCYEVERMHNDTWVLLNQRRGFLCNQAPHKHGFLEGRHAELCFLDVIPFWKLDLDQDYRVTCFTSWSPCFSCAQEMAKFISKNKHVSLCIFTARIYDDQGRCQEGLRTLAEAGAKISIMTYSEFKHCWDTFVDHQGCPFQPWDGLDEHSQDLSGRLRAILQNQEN
Sequence of Ras and Rab interactor 1/Tyrosine-protein kinase ABL1 (P00519 whole entry): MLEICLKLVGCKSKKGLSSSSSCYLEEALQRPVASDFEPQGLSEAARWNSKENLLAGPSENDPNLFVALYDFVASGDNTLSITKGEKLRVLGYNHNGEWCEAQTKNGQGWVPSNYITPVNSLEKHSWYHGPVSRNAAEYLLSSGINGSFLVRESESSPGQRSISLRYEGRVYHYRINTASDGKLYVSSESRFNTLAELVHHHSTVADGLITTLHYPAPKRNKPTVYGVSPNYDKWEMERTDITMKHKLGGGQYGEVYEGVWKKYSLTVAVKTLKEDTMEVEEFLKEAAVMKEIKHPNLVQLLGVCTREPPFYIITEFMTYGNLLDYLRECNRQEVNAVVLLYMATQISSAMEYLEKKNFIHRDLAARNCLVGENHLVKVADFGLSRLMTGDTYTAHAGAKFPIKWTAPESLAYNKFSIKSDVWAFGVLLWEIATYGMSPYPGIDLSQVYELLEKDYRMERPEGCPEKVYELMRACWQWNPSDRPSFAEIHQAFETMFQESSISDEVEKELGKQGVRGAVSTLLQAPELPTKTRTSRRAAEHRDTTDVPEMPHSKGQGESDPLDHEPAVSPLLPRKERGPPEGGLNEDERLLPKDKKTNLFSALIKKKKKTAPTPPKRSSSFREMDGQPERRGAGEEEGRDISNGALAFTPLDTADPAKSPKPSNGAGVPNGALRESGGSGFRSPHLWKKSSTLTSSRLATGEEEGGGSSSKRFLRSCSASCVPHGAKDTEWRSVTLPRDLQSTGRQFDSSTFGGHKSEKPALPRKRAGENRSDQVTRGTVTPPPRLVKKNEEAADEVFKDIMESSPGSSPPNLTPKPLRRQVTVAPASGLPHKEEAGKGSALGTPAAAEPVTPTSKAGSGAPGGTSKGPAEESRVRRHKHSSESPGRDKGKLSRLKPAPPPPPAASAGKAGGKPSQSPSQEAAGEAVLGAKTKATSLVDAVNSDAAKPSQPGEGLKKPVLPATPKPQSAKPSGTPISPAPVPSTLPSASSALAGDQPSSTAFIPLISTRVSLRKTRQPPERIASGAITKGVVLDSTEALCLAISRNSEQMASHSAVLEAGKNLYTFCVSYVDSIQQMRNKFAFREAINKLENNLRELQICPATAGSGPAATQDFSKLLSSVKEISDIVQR
Sequence of Ras and Rab interactor 1/Tyrosine-protein kinase ABL1 (Q13671 whole entry): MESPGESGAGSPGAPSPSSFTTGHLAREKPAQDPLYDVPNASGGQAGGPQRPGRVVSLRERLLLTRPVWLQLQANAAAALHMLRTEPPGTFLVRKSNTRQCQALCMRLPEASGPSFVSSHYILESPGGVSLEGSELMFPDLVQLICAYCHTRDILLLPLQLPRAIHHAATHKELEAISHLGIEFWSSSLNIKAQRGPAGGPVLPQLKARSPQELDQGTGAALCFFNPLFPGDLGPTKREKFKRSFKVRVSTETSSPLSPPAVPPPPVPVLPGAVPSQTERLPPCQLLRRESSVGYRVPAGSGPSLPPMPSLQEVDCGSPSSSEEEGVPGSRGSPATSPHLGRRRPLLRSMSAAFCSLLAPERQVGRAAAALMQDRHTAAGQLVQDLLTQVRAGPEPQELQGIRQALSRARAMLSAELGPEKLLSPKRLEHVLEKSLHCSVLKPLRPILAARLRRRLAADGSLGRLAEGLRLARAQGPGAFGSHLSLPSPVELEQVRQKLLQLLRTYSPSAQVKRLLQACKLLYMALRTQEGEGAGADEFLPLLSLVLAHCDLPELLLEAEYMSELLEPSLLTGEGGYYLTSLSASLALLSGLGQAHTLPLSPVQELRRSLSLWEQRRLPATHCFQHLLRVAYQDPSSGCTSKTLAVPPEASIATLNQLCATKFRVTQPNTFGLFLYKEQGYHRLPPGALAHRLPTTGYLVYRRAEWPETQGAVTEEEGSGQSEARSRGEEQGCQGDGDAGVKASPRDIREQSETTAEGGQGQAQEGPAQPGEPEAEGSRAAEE
Sequence of DNA dC->dU-editing enzyme APOBEC-3A (P31941 whole entry): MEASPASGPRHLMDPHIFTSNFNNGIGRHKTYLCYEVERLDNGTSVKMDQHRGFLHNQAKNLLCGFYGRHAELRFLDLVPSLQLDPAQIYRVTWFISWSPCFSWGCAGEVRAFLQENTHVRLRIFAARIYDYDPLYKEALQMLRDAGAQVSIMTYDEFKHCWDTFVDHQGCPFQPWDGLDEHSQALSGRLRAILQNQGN
Sequence of Melanocortin receptor 4 (P32245 whole entry): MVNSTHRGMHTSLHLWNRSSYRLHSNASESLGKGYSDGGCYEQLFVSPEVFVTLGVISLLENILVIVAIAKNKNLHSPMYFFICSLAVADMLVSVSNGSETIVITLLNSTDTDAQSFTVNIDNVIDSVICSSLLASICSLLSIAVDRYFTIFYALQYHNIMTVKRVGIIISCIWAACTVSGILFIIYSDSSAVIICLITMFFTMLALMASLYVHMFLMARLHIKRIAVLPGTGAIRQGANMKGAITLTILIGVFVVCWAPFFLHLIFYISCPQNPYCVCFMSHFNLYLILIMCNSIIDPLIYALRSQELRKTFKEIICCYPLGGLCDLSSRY

For the compound `COc1ccc(CCNCc2ccc(SC)cc2)cc1`, the half-maximal effective concentration (EC50) in [1] is 5.31 µM (active); in [2] it was 0.225 µM (active); in [3] it was > 60 µM (not active).

On to `C=CCn1c2ccccc2c2nnc(SCc3[nH]c(=O)[nH]c3C(=O)CCCCC(=O)OCC)nc21`, for which, in assay [4], the IC50 is 2.19 µM (active).

Take `COCCN(C(=O)COC(=O)CNC(=O)c1cccs1)c1c(N)n(Cc2ccccc2)c(=O)[nH]c1=O`: the IC50 in assay [5] was 8.35 µM (active); in [6], 10.8 µM (active). In the case of `Cc1sc2ncnc(NCC(c3ccco3)N3CCCC3)c2c1C` (stereo not given), in [1], the EC50 was 0.0173 µM (active). In the case of `CCOC(=O)c1[nH]c(C)c(C(=O)Nc2cc(Cl)ccc2C)c1C`, the IC50 in assay [7] is > 80 µM (inactive). For `Cc1cccc(N(Cc2ccccc2)C(=O)Cc2ccc(S(=O)(=O)N3CCOCC3)s2)c1`, in [4], the IC50 is 18.6 µM (inactive). Besides, in assay [8], the 50% cytotoxic concentration (CC50) is 22 µM (active). Consider `CCn1cc(C(=O)O)c(=O)c2cc(F)c(N3CCN(C(=S)NC(=O)c4ccccc4Br)CC3)cc21`, for which, in assay [9], the IC50 was 4.66 µM (active). With `CCCCN(CC)CCNC(=O)Cn1cc2c(n1)-c1c(oc(C(=O)N3CCCC3)c1C)CC2`, in assay [1], the EC50 is 0.267 µM (active). Take `CC(=O)Nc1ccc(NC(=O)CCn2c(=S)oc3ccccc32)cc1`: the IC50 in assay [10] was > 50 µM (inactive). `CCN1CCN(S(=O)(=O)c2ccc(Cl)c(C(=O)Nc3cc(Cl)ccc3N3CCOCC3)c2)CC1`: the IC50 is 5.15 µM (active) in assay [5] and 5.78 µM (active) in assay [6]. In the case of `CC(=O)c1cccc(-c2cnc3c(NC=O)cc(-c4ccccc4F)cn23)c1`, the IC50 in [11] was > 79 µM (inactive). For the same compound, in assay [12], the EC50 was > 89.2 µM (inactive). On to `Cc1ccc2nc(-c3cccc(SC4CCCCC4)c3)c(NCc3ccccc3)n2c1`, for which the AC50 in [13] is 5.3 µM (active); in assay [14], > 70 µM (inactive); in assay [15], 3.53 µM (active). As for `O=C(NCc1ccccc1)C(c1ccc(C(F)(F)F)cc1)n1c(=O)c(-c2ccco2)nc2ccccc21` (stereo not given), the IC50 in [16] is 2.02 µM (active). Consider `CCCCCNC(=O)C(c1ccccc1F)n1c(=O)c(-c2ccco2)nc2ccccc21` (stereo not given), for which the IC50 in assay [16] is 0.97 µM (active). For the compound `O=C(N/N=C/c1ccccn1)c1ccccc1`, the 50% cytotoxic concentration (CC50) in [17] was > 20 µM (active). Further, the IC50 in [18] is > 50 µM (active).

In the case of `Brc1cccc(/C=N/Nc2nn[nH]n2)c1`, in assay [10], the IC50 was > 50 µM (inactive).

The term EC50 denotes the concentration giving half of the maximal effect. Usually CC50 stands for the concentration that lowers cell viability or growth by half. In general, AC50 refers to the concentration giving half of the maximal activity seen.
